In patent US5493007A, “Platelet aggregation inhibitors having high specificity for GPIIBIIIA” (Genentech, Inc., priority 1994, dated 1996) one finds PBF and IC50 data, which are given here for 18 compounds.

Data set [1] has as its system New Zealand White rabbits. Put plainly: Rabbit peripheral blood flow (PBF) by observation of ear vessels. The data set is classed as in vivo. On the set-up: key to PBF: NORMAL: Normal flow is defined as ears that appear pink to red, with no visible constriction of the major blood vessels; Decreased flow applies to ears that have constricted vessels resulting in cold, pallid ears for up to 40 minutes following the start of the inhibitor infusion. The note with it: rabbit, measured visually. As to the method:
Catheters are flushed and locked after every sample.
For the experiments summarized in Table 1, PBF was monitored by observation of the condition of the blood vessels in the rabbits' ears, prior to and during the infusion. Normal flow is defined as ears that appear pink to red, with no visible constriction of the major blood vessels. Decreased flow applies to ears that have constricted vessels resulting in cold, pallid ears for up to 40 minutes following the start of the inhibitor infusion.

The target of data set [2] is human platelet rich plasma (PRP) (Homo sapiens, UniProt P05106+P08514). Put plainly: In Vitro Human Platelet Aggregation Assay. Format: cell-based. The following applies: human PRP; read-out: Human Platelet Aggregation IC50. As to the method:
Platelet aggregation assays are performed in human platelet rich plasma (PRP). Fifty milliliters of whole human blood (9 parts) is drawn on 3.6% sodium citrate (1 part) from a donor who has not taken aspirin or related medications for at least two weeks. The blood is centrifuged at 160×g for 10 minutes at 22° C. and allowed to stand for 5 minutes after which the PRP is decanted. Platelet poor plasma (PPP) is isolated from the remaining blood after centrifugation at 2000×g for 25 minutes. The platelet count of the PRP is diluted to about 300,000 platelets per microliter with PPP.
A 225 μl aliquot of PRP plus 25 μl of either a dilution of the test inhibitor sample or a control (PBS) is incubated for 5 minutes in a Chrono-log Whole Blood Aggregometer at 25° C. An aggregating agent (collagen, 1 μg/ml; U46619, 100 ng/ml; or ADP, 17 μM) is added and the transmission is recorded.

The mark [3] stands for this setting: i.v. bolus 1.5 mg/kg + 0.036 mg/kg infused over 60 minutes.

*1 amine or outer side, *2 acyl side, *3 side chain or, on linkers, in order; H or OH if unused. Where a SMILES comes first, the peptide text is derived from it. Bridges are numbered along the chain shown (N, C = ends). [ ]: non-standard residue; d: D form. Cys(O)(CH2CO) = O=C([C@H](C[S+]([O-])CC(=O)[*:3])N[*:1])[*:2]; Aad = N[C@@H](CCCC(=O)O)C(=O)O; Pen = CC(C)(S)[C@H](N)C(=O)O; dOrn = NCCC[C@@H](N)C(=O)O

human platelet rich plasma (PRP), sequence (P08514 32-1039): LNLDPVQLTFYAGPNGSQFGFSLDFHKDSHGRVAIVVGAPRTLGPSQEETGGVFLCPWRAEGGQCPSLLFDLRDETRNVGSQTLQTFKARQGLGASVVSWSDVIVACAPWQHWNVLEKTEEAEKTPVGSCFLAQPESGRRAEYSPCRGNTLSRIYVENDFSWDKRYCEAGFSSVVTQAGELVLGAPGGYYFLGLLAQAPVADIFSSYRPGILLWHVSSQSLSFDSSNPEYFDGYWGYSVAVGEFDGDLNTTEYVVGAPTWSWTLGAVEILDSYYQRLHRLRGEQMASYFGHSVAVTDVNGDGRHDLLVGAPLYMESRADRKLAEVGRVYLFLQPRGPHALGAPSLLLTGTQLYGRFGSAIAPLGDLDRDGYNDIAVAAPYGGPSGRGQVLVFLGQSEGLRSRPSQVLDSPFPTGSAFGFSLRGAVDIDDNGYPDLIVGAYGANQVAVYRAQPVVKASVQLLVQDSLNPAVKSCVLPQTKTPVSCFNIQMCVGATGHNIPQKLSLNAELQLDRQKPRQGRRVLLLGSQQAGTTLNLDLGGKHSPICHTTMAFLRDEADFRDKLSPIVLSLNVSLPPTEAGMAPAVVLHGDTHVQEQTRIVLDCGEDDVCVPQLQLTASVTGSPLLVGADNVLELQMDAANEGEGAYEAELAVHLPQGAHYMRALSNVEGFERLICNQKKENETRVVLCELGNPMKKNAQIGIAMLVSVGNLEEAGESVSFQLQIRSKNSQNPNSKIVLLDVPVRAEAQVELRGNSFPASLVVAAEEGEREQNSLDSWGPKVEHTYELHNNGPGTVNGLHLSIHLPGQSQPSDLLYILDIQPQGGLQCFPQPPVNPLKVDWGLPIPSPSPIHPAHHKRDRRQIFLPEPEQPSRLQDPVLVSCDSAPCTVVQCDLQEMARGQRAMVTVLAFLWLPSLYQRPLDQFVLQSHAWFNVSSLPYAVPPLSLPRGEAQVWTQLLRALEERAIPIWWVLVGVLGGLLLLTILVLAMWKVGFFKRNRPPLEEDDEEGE
human platelet rich plasma (PRP), sequence (P05106 27-788): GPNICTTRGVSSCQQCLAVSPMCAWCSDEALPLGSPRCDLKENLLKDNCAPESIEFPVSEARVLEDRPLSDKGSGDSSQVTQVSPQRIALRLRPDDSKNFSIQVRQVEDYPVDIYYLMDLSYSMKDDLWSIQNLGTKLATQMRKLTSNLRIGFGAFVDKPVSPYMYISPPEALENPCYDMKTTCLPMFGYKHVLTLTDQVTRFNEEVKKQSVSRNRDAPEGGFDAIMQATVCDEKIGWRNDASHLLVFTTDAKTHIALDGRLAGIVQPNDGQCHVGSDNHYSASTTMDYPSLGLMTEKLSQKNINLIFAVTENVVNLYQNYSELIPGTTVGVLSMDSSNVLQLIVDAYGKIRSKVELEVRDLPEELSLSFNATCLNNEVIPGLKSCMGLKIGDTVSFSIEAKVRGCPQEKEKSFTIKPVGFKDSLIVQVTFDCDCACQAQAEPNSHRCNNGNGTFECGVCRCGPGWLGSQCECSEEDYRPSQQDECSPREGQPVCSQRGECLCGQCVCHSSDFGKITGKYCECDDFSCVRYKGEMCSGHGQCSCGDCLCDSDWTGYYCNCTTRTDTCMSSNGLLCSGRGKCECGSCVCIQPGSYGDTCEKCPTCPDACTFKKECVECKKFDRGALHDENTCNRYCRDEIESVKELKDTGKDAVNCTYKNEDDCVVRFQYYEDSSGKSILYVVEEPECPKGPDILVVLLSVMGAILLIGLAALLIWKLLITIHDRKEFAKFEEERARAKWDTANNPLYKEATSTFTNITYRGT

Consider `NCCCC[C@@H]1NC(=O)[C@@H](Cc2ccc(O)cc2)NC(=O)C(c2ccccc2)SC[C@@H](C(=O)O)NC(=O)[C@H](CC(=O)O)NC(=O)CNC1=O` (single isomer, unassigned) [drawing 13], for which, in data set [1] (setting [3]), the PBF result is “NORMAL”. As for `N=C(N)NCCC[C@@H]1NC(=O)[C@@H](Cc2ccc(O)cc2)NC(=O)C[S+]([O-])C[C@@H](C(=O)N[C@@H](CCCN)C(N)=O)NC(=O)[C@H](CC(=O)O)NC(=O)CNC1=O` (stereo partly drawn), the PBF result in data set [1] (setting [3]) is recorded as “NORMAL”. The same measure, in the same setting: for `N=C(N)NCCC[C@@H]1NC(=O)[C@@H](Cc2ccc(O)cc2)NC(=O)[C@H](CCCNC(=N)N)SC[C@@H](C(=O)O)NC(=O)[C@H](CC(=O)O)NC(=O)CNC1=O` the value was “NORMAL”; for `CC1(C)SCC(=O)N[C@H](Cc2ccc(O)cc2)C(=O)N[C@@H](CCCCN)C(=O)NCC(=O)N[C@@H](CC(=O)O)C(=O)N[C@@H]1C(=O)N[C@@H](CCCNC(=N)N)C(N)=O` [drawing 26] ({CH2CO}-[dY]KGD[Pen]R-NH2; thioether N-5), “NORMAL”. In the case of `N=C(N)NCCC[C@@H]1NC(=O)[C@@H](Cc2ccc(O)cc2)NC(=O)CSC[C@@H](C(=O)N[C@H](CCCN)C(N)=O)NC(=O)[C@H](CC(=O)O)NC(=O)CNC1=O` [drawing 18] ({CH2CO}-[dY]RGDC[dOrn]-NH2; thioether N-5), the PBF entry in data set [1] (setting [3]) is “NORMAL”. In the case of `N=C(N)NCCC[C@H](NC(=O)[C@@H]1CCCC(=O)N[C@H](Cc2ccc(O)cc2)C(=O)N[C@@H](CCCNC(=N)N)C(=O)NCC(=O)N[C@@H](CC(=O)O)C(=O)N1)C(N)=O` [drawing 28] ([dY]RGD[Aad]R-NH2; lactam N-5), the PBF entry in data set [1] (setting [3]) was “NORMAL”. Regarding `N=C(N)NCCC[C@@H]1NC(=O)[C@@H](Cc2ccc(O)cc2)NC(=O)[C@@H](CCCNC(=N)N)SC[C@@H](C(=O)O)NC(=O)[C@H](CC(=O)O)NC(=O)CNC1=O`, the PBF entry in data set [1] (setting [3]) is “NORMAL”.

As for `N=C(N)NCCC[C@@H]1NC(=O)[C@@H](Cc2ccc(O)cc2)NC(=O)C(CCCCN)SC[C@@H](C(=O)O)NC(=O)[C@H](CC(=O)O)NC(=O)CNC1=O` (single isomer, unassigned) [drawing 22], the PBF entry in data set [1] (setting [3]) is given as “NORMAL”. Consider `CC1(C)SCC(=O)N[C@H](Cc2ccc(O)cc2)C(=O)N[C@@H](CCCCN)C(=O)NCC(=O)N[C@@H](CC(=O)O)C(=O)N[C@@H]1C(=O)O` [drawing 9] ({CH2CO}-[dY]KGD[Pen]-OH; thioether N-5), for which the PBF result in data set [1] (setting [3]) was “NORMAL”. As to `N=C(N)NCCC[C@@H]1NC(=O)[C@@H](Cc2ccc(O)cc2)NC(=O)C[S+]([O-])C[C@@H](C(=O)O)NC(=O)[C@H](CC(=O)O)NC(=O)CNC1=O` (stereo partly drawn) ([dY]RGD[Cys(O)(CH2CO)]-OH; lactam N-5), the PBF entry in data set [1] (i.v. bolus .375 mg/kg + 0.009 mg/kg infused over 60 minutes) is on record as “NORMAL”. As for `N=C(N)NCCC[C@@H]1NC(=O)[C@@H](Cc2ccc(O)cc2)NC(=O)CCC[C@@H](C(=O)N[C@@H](CCCCN)C(N)=O)NC(=O)[C@H](CC(=O)O)NC(=O)CNC1=O` [drawing 29] ([dY]RGD[Aad]K-NH2; lactam N-5), the PBF entry in data set [1] (setting [3]) is “NORMAL”.

What is called IC50 is the midpoint of a concentration-inhibition curve. For `N=C(N)NCCC[C@@H]1NC(=O)[C@@H](Cc2ccc(O)cc2)NC(=O)CSC[C@@H](C(=O)N[C@@H](CCCCN)C(=O)O)NC(=O)[C@H](CC(=O)O)NC(=O)CNC1=O` [7/25, cyclo-S-acetyl-dTyr--Arg--Gly--Asp--Cys--Lys--OH] ({CH2CO}-[dY]RGDCK-OH; thioether N-5), the IC50 in data set [2] came out at 370 nM. In the case of `N=C(N)NCCC[C@@H]1NC(=O)[C@@H](Cc2ccc(O)cc2)NC(=O)C(CCCCN)SC[C@@H](C(=O)O)NC(=O)[C@H](CC(=O)O)NC(=O)CNC1=O` (single isomer, unassigned) [drawing 23], the PBF entry in data set [1] (setting [3]) is on record as “NORMAL”. Turning to “cyclo-S-acetyl-dTyr--Arg--Gly--Asp--Cys--Tyr--Arg--NH2 [7/43]”, the IC50 in data set [2] came out at 350 nM. For the compound `N=C(N)NCCC[C@H](NC(=O)[C@@H]1C[S+]([O-])CC(=O)N[C@H](Cc2ccc(O)cc2)C(=O)N[C@@H](CCCNC(=N)N)C(=O)NCC(=O)N[C@@H](CC(=O)O)C(=O)N1)C(N)=O` (single isomer, unassigned) [drawing 34], in data set [1] (setting [3]), the PBF result is on record as “NORMAL”. Take `N=C(N)NCCC[C@H](NC(=O)[C@@H]1CSCC(=O)N[C@H](Cc2ccc(O)cc2)C(=O)N[C@@H](CCCNC(=N)N)C(=O)NCC(=O)N[C@@H](CC(=O)O)C(=O)N1)C(N)=O` [drawing 15] ({CH2CO}-[dY]RGDCR-NH2; thioether N-5): in data set [1] (setting [3]), the PBF result is listed as “NORMAL”. Same read-out and setting: for `N=C(N)NCCC[C@@H]1NC(=O)[C@@H](Cc2ccc(O)cc2)NC(=O)CSC[C@@H](C(=O)N[C@@H](CCCCN)C(=O)O)NC(=O)[C@H](CC(=O)O)NC(=O)CNC1=O` [drawing 32] ({CH2CO}-[dY]RGDCK-OH; thioether N-5) the value was “NORMAL”.

As for `N=C(N)NCCC[C@H](NC(=O)[C@@H]1C[S+]([O-])CC(=O)N[C@H](Cc2ccc(O)cc2)C(=O)N[C@@H](CCCNC(=N)N)C(=O)NCC(=O)N[C@@H](CC(=O)O)C(=O)N1)C(N)=O` (single isomer, unassigned) [drawing 33], in data set [1] (i.v. bolus 0.5 mg/kg + 0.012 mg/kg infused over 60 minutes), the PBF entry is “NORMAL”.
